Source: PubChem BioAssay (NCI)
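Grown in 96-well plates, cells were treated for 48 hours with each compound at five concentrations. Insufficient inhibition: endpoint recorded as highest concentration tested. TGI: total growth inhibition.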

Legend:
Test in all cases: NCI anticancer screen, dose series, 48 h
MDA-MB-435 = tested on: MDA-MB-435
MALME-3M melanoma = tested on: MALME-3M melanoma
HCT-116 colon = tested on: HCT-116 colon
CAKI-1 renal = tested on: CAKI-1 renal
UO-31 renal = tested on: UO-31 renal
SF-539 CNS = tested on: SF-539 CNS
UACC-62 melanoma = tested on: UACC-62 melanoma
786-0 renal = tested on: 786-0 renal
HT29 colon = tested on: HT29 colon
HCT-15 colon = tested on: HCT-15 colon

Work on CCN1CCCC(Nc2cc(C)nc(/N=C(/N)Nc3ccc(Cl)c(Cl)c3)n2)C1 (centres undefined) yielded a TGI (MDA-MB-435) of 2.89 µM, a TGI (MALME-3M melanoma) of 4.02 µM and a TGI (HCT-116 colon) of 2.76 µM. For the same molecule, the TGI (CAKI-1 renal) was 3.1 µM, the TGI (UO-31 renal) was 2.18 µM and the TGI (SF-539 CNS) was 3.66 µM. For the same molecule, the TGI (UACC-62 melanoma) was 3.31 µM, the TGI (786-0 renal) was 2.95 µM and the TGI (HT29 colon) was 15.7 µM. It also gave a TGI (HCT-15 colon) of 3.7 µM.
COc1cc(OC)cc(-n2c(N)c(-c3nc4ccccc4n3C)c3ccc([N+](=O)[O-])cc3c2=O)c1 was tested, and the TGI (MDA-MB-435) was over 100 µM, the TGI (HCT-116 colon) was over 100 µM and the TGI (CAKI-1 renal) was over 100 µM. It also gave a TGI (UO-31 renal) of over 100 µM, a TGI (UACC-62 melanoma) of over 100 µM and a TGI (786-0 renal) of over 100 µM. For the same molecule, the TGI (HT29 colon) was over 100 µM and the TGI (HCT-15 colon) was over 100 µM.
CC(=O)C12C[C@](C#N)(N3CCCCCC3)C1C=Cc1ccccc12 (some centres undefined) was tested, and the TGI (MDA-MB-435) was over 100 µM, the TGI (HCT-116 colon) was over 100 µM and the TGI (CAKI-1 renal) was over 100 µM. It also gave a TGI (UO-31 renal) of over 100 µM, a TGI (SF-539 CNS) of over 100 µM and a TGI (UACC-62 melanoma) of over 100 µM. For the same molecule, the TGI (786-0 renal) was over 100 µM, the TGI (HT29 colon) was over 100 µM and the TGI (HCT-15 colon) was over 100 µM.
Cn1c2c(c3ccccc31)CCN1C(=O)C3SC21C1C(=O)N(c2ccccc2)C(=O)C31 (centres undefined) gave a TGI (MDA-MB-435) of over 100 µM, a TGI (MALME-3M melanoma) of over 100 µM and a TGI (HCT-116 colon) of over 100 µM. For the same molecule, the TGI (CAKI-1 renal) was over 100 µM, the TGI (UO-31 renal) was over 100 µM and the TGI (SF-539 CNS) was over 100 µM. For the same molecule, the TGI (UACC-62 melanoma) was over 86.3 µM, the TGI (786-0 renal) was over 100 µM and the TGI (HT29 colon) was over 100 µM. It also gave a TGI (HCT-15 colon) of over 100 µM.
Molecule Cc1nn(C(=O)c2ccncc2)c2c1C(c1cccc([N+](=O)[O-])c1)SC(N)=N2 (centres undefined) has a TGI (MDA-MB-435) of over 10 µM, a TGI (MALME-3M melanoma) of over 10 µM and a TGI (HCT-116 colon) of over 10 µM. For the same molecule, the TGI (CAKI-1 renal) was over 10 µM, the TGI (SF-539 CNS) was over 10 µM and the TGI (UACC-62 melanoma) was over 10 µM. The TGI (786-0 renal) was over 10 µM, the TGI (HT29 colon) was over 10 µM and the TGI (HCT-15 colon) was over 10 µM.
CC1C2CC(C/C2=N/O)C1(C)C (centres undefined) gave a TGI (MDA-MB-435) of over 100 µM, a TGI (MALME-3M melanoma) of over 100 µM and a TGI (HCT-116 colon) of over 100 µM. For the same molecule, the TGI (CAKI-1 renal) was over 100 µM, the TGI (UO-31 renal) was over 100 µM and the TGI (SF-539 CNS) was over 100 µM. For the same molecule, the TGI (UACC-62 melanoma) was over 100 µM, the TGI (786-0 renal) was over 100 µM and the TGI (HT29 colon) was over 100 µM.
Molecule [N-]=[N+]=NC[C@H]1OCO[C@H](CN=[N+]=[N-])[C@H]2OCCOCCOc3ccccc3OCCOCCO[C@@H]21 has a TGI (MDA-MB-435) of over 100 µM, a TGI (MALME-3M melanoma) of over 100 µM and a TGI (HCT-116 colon) of over 100 µM. The TGI (CAKI-1 renal) was over 100 µM, the TGI (UO-31 renal) was over 100 µM and the TGI (SF-539 CNS) was over 100 µM. For the same molecule, the TGI (UACC-62 melanoma) was over 100 µM, the TGI (786-0 renal) was over 100 µM and the TGI (HT29 colon) was over 100 µM. It also gave a TGI (HCT-15 colon) of over 100 µM.
Work on O=C(/C=C(\O)c1ccccc1)/C(=C/C(=O)c1ccccc1)NN=C(c1ccccc1)c1ccccc1 yielded a TGI (MDA-MB-435) of over 100 µM, a TGI (MALME-3M melanoma) of over 100 µM and a TGI (HCT-116 colon) of over 100 µM. It also gave a TGI (CAKI-1 renal) of over 100 µM, a TGI (UO-31 renal) of over 100 µM and a TGI (SF-539 CNS) of over 100 µM. The TGI (UACC-62 melanoma) was 36.7 µM, the TGI (786-0 renal) was over 100 µM and the TGI (HT29 colon) was over 100 µM. The TGI (HCT-15 colon) was over 100 µM.
In the case of COc1cc([C@H]2Oc3c(OC)cc(CCCO)cc3[C@@H]2CO)ccc1O, the TGI (MDA-MB-435) is reported as over 100 µM, the TGI (MALME-3M melanoma) is reported as over 100 µM and the TGI (HCT-116 colon) is reported as over 100 µM. For the same molecule, the TGI (UO-31 renal) was over 100 µM, the TGI (SF-539 CNS) was over 100 µM and the TGI (UACC-62 melanoma) was over 100 µM. It also gave a TGI (786-0 renal) of over 100 µM, a TGI (HT29 colon) of over 100 µM and a TGI (HCT-15 colon) of over 100 µM.
For CC(C)C(C/C=C1/CC(CO)(COC(=O)C2CCCCC2)OC1=O)C(C)C (centres undefined), the TGI (MDA-MB-435) was over 100 µM, the TGI (MALME-3M melanoma) was 42.3 µM and the TGI (HCT-116 colon) was 33.9 µM. For the same molecule, the TGI (CAKI-1 renal) was 37.8 µM, the TGI (UO-31 renal) was 33.1 µM and the TGI (SF-539 CNS) was 29.1 µM. The TGI (UACC-62 melanoma) was over 100 µM, the TGI (786-0 renal) was 26.9 µM and the TGI (HT29 colon) was 75.4 µM. For the same molecule, the TGI (HCT-15 colon) was 39.6 µM.
